Experimental data as given in PubChem BioAssay (NCI).
≈ marks a conversion by molar mass, not a printed value. Where “and” joins values, the source holds several entries; their conditions need not be identical. Identical values can stand only once.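 Cultured in 96-well plates, cells were exposed to test compound for 48 hours across five concentrations. At the GI50, growth is halved. The concentration for full growth arrest is given as TGI.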

Key:
Assay in all cases: inhibition of tumour cell growth, NCI panel, 48 h
[1] = system: BT-549 breast
[2] = system: DMS 114 small cell lung
[3] = system: HOP-62 NSCLC
[4] = system: HS 578T breast
[5] = system: IGROV1 ovarian
[6] = system: MALME-3M melanoma
[7] = system: NCI-H23 lung
[8] = system: SK-MEL-5 melanoma
[9] = system: SN12C renal

Compound	TGI [1] [µM]	GI50 [2] [µg/mL]	TGI [2]	GI50 [3]	TGI [3]	TGI [4] [µM]	GI50 [5] [µg/mL]	TGI [5]	GI50 [6] [µg/mL]	TGI [6]	GI50 [7] [µg/mL]	TGI [7]	GI50 [8] [µg/mL]	TGI [8]	GI50 [9] [µg/mL]	TGI [9]
CSc1ccc(/C=C2\CNC/C(=C\c3ccc(SC)cc3)C2=O)cc1	> 371	54.1 (≈ 147 µM)	132 µM and 150 µg/mL	14 µM and 50.2 µg/mL	59.3 µM and 131 µg/mL	> 371	26.3 (≈ 71.5 µM)	> 162 µM and 110 µg/mL	150 (≈ 408 µM)	> 371 µM and 150 µg/mL	21.2 (≈ 57.7 µM)	> 130 µM and 83.6 µg/mL	150 (≈ 408 µM)	> 371 µM and 150 µg/mL	150 (≈ 408 µM)	> 371 µM and 150 µg/mL
COC1/C=C/OC2(C)Oc3c(C)c(O)c4c(c3C2=O)C(=O)C=C(NC(=O)/C(C)=C\C=C\C(C)C(OC=O)C(C)C(O)C(C)C(OC(C)=O)C1C)C4=O (centres undefined)	24		34.6 µM		34.8 µM	44.9		34.7 µM		28.7 µM		30.6 µM		31.6 µM		29.5 µM
CC1(C)O[C@H]2OC3CCC(=O)CC3(O)[C@H]2O1 (some centres undefined)	> 100		> 100 µM		> 100 µM	> 100		> 100 µM		> 100 µM		> 100 µM		> 100 µM		> 100 µM
